# Source: US8791141B2, “Organic compounds” (Novartis AG, priority 2008, dated 2014)
# Structures can show the parent of a compound that is named as a salt.
# How the values were obtained:
# [1] = biological target: T1, CYP11B1 (steroid 11-hydroxylase) (Homo sapiens, UniProt P15538); assay: Inhibition of cortisol secretion in NCI-H295R cells; type: cell-based; details: human adrenocortical carcinoma NCI-H295R cells, 24 hours with cell stimulant
# T1 construct: the NCI-H295R cells have CYP11B2 (aldosterone synthase) and CYP11B1 (steroid 11-hydroxylase); host or cells: NCI-H295R
# T1 sequence (P15538 25-503): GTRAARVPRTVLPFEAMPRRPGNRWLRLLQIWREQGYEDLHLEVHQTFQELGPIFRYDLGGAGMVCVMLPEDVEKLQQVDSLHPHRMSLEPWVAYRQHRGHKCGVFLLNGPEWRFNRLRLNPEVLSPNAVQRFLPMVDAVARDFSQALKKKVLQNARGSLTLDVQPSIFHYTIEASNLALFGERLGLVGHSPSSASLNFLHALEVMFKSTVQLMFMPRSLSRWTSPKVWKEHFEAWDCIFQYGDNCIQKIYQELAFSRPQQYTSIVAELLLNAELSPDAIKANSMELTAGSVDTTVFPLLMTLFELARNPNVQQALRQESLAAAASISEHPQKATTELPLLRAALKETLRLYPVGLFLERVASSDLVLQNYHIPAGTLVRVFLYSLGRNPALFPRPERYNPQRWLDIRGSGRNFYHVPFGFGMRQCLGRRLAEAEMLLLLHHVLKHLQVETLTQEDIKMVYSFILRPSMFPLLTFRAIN
# Description: (§1) The activities of a compound according to the present invention can be assessed by the following in vitro method well-described in the art.
# (§2) In particular, the inhibition of aldosterone and cortisol secretion in vitro can be determined by the following assay.
# (§3) The cell line NCI-H295R was originally isolated from an adrenocortical carcinoma and has been characterized in the literature through the stimulable secretion of steroid hormones and the presence of the enzymes essential for steroidogenesis. The cells show the physiological property of zonally undifferentiated human foetal adrenocortical cells which, however, have the capacity to produce the steroid hormones which are formed in the three phenotypically distinguishable zones in the adult adrenal cortex. Thus, the NCI-H295R cells have CYP11B2 (aldosterone synthase) and CYP11B1 (steroid 11-hydroxylase).
# (§4) The human adrenocortical carcinoma NCI-H295R cell line is obtained from American Type Culture Collection (Manassas, Va.). Insulin/transferrin/selenium (ITS)-A supplement (100×), DMEM/F-12, antibiotic/antimycotic (100×), and fetal calf serum (FCS) are purchased from Invitrogen (Carlsbad, Calif.). Anti-mouse PVT scintillation proximity assay (SPA) beads and NBS 96-well plates are obtained from Amersham (Piscataway, N.J.) and Corning (Acton, Mass.), respectively. Clear bottom 96-well flat bottom plates are purchased from Costar (Corning, N.Y.). Aldosterone and angiotensin (Ang II) are purchased from Sigma (St. Louis, Mo.). D[1,2,6,7-3H(N)]aldosterone and [1,2,6,7-3H(N)]cortisol are acquired from PerkinElmer (Boston, Mass.). Nu-serum is a product of BD Biosciences (Franklin Lakes, N.J.).
# (§5) For in vitro measurement of aldosterone and cortisol activity, human adrenocortical carcinoma NCI-H295R cells are seeded in NBS 96-well plates at a density of 25,000 cells/well in 100 μL of a growth medium containing DMEM/F12 supplemented with 10% FCS, 2.5% Nu-serum, 1 μg ITS/ml, and 1× antibiotic/antimycotic. The medium is changed after culturing for 3 days at 37° C. under an atmosphere of 5% CO2/95% air. On the following day, cells are rinsed with 100 μL of DMEM/F12 and incubated in quadruplicate wells at 37° C. for 24 hours with 100 μL of treatment medium containing a cell stimulant and a compound at different concentrations. […] Cell stimulants which can be used are angiotensin-II (1 micromolar), potassium ions (16 millimolar), forskolin (10 micromolar) or a combination of two stimulants. At the end of incubation, the excretion of aldosterone and cortisol into the culture medium can be detected and quantified by commercially available, specific monoclonal antibodies in radioimmunoassays in accordance with the manufacturer's instructions.
# (§6) Measurement of aldosterone can also be performed using a 96-well plate format. Each test sample is incubated with 0.02 μCi of D[1,2,6,7-3H(N)]aldosterone and 0.3 μg of anti-aldosterone antibody in phosphate-buffered saline (PBS) containing 0.1% Triton X-100, 0.1% bovine serum albumin, and 12% glycerol in a total volume of 200 μL at room temperature for 1 hour. Anti-mouse PVT SPA beads (50 μL) are then added to each well and incubated overnight at room temperature prior to counting in a Microbeta plate counter. The amount of aldosterone in each sample is calculated by comparing with a standard curve generated using known quantities of the hormone. Measurement of cortisol can be performed in a manner similar to that of aldosterone, except that [1,2,6,7-3H(N)]cortisol is used.
# (§7) Inhibition of the release of a steroid can be used as a measure of the respective enzyme inhibition by the added test compounds. The dose-dependent inhibition of enzymatic activity by a compound is calculated by means of an inhibition plot which is characterized by an IC50. […] The inhibition plot is calculated by fitting a 4-parameter logistic function to the raw data points using the least squares method.
# [2] = biological target: T2, CYP11B2 (aldosterone synthase) (Homo sapiens, UniProt P19099); assay: Inhibition of aldosterone secretion in NCI-H295R cells; type: cell-based; details: human adrenocortical carcinoma NCI-H295R cells, 24 hours with cell stimulant
# T2 construct: the NCI-H295R cells have CYP11B2 (aldosterone synthase) and CYP11B1 (steroid 11-hydroxylase); host or cells: NCI-H295R
# T2 sequence (P19099 25-503): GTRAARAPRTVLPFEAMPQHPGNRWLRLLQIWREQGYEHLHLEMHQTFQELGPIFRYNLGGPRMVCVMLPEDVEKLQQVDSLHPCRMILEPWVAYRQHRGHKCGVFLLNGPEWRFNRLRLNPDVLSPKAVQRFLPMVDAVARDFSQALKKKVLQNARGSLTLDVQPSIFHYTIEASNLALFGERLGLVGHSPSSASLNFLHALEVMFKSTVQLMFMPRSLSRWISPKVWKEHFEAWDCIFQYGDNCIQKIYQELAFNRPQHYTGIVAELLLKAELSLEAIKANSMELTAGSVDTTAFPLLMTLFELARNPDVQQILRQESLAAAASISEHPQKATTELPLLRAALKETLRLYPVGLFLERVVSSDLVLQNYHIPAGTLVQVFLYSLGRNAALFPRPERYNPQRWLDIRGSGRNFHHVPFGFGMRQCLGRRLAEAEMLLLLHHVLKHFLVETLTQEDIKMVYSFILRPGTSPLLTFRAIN
# Description: as §1, §2, §3, §4, §5, §6, §7
IC50 [1] [nM],IC50 [2] [nM],SMILES
447,27,"Cc1c(-c2cccnc2)n(Cc2cccc(C#N)c2)c2cc(F)ccc12 [Example 15, 3-(6-Fluoro-3-methyl-2-pyridin-3-yl-1H-indol-1-ylmethyl)-benzonitrile hydrochloride]"
662,14,"Cc1c(-c2cccnc2)n(Cc2ccc(C(=O)O)cc2)c2cccc(F)c12 [Example 33, 4-(4-Fluoro-3-methyl-2-pyridin-3-yl-1H-indol-1-ylmethyl)-benzoic acid]"
600,30,"N#Cc1cccc(C(=O)n2c(-c3cccnc3)cc3cc(C#N)ccc32)c1 [Example 42, 1-(3-Cyano-benzoyl)-2-pyridin-3-yl-1H-indole-5-carbonitrile]"
240,10,"Cc1c(-c2cccnc2)n(COC(=O)C(C)(C)C)c2ccc(Cl)cc12 [Example 65, 2,2-Dimethyl-propionic acid 5-chloro-3-methyl-2-pyridin-3-yl-indol-1-ylmethyl ester]"
37,2,"COc1cncc(-c2cc3ccccc3n2C)c1 [Example 101, 2-(5-Methoxy-pyridin-3-yl)-1-methyl-1H-indole]"
220,9,"Cn1c(-c2cnccc2Cl)cc2ccccc21 [Example 107, 2-(4-Chloro-pyridin-3-yl)-1-methyl-1H-indole]"
650,78,"Cn1c(-c2cncc(Cl)c2)c(C#N)c2ccccc21 [Example 123, 2-(5-Chloro-pyridin-3-yl)-1-methyl-1H-indole-3-carbonitrile]"
3,2,"Cn1c(-c2cncc(CN3CCN(S(C)(=O)=O)CC3)c2)c(C#N)c2ccc(Cl)cc21 [Example 180, 6-Chloro-2-[5-(4-methanesulfonyl-piperazin-1-ylmethyl)-pyridin-3-yl]-1-methyl-1H-indole-3-carbonitrile]"
20,4,COCCOC(=O)NCc1cncc(-c2c(C#N)c3ccc(Cl)cc3n2C)c1 [Example 192]
19,3,"CC(C)NC(=O)NCc1cncc(-c2c(C#N)c3ccc(Cl)cc3n2C)c1 [Example 196, 1-[5-(6-Chloro-3-cyano-1-methyl-1H-indol-2-yl)-pyridin-3-ylmethyl]-3-isopropyl-urea]"
213,2,"CCS(=O)(=O)NCc1cncc(-c2cc3ccc(Cl)cc3n2C)c1 [Example 206, N-[5-(6-Chloro-1-methyl-1H-indol-2-yl)-pyridin-3-ylmethyl]-ethanesulfonamide]"
788,23,"Cn1c(-c2cncc(CNS(=O)(=O)CC(F)(F)F)c2)cc2ccc(Cl)cc21 [Example 209, 2,2,2-Trifluoro-ethanesulfonic acid [5-(6-chloro-1-methyl-1H-indol-2-yl)-pyridin-3-ylmethyl]-amide]"
377,56,"CC(C)C(=O)C1(CNc2cncc(-c3cc4ccccc4n3C)c2)CCC1 [Example 214, 2-Methyl-1-(1-{[5-(1-methyl-1H-indol-2-yl)-pyridin-3-ylamino]-methyl}-cyclobutyl)-propan-1-one]"
345,36,"CCS(=O)(=O)Nc1cncc(-c2cc3ccccc3n2C)c1 [Example 226, Ethanesulfonic acid [5-(1-methyl-1H-indol-2-yl)-pyridin-3-yl]-amide]"
> 1000,105,CN(C)S(=O)(=O)Nc1cncc(-c2cc3ccccc3n2C)c1 [Example 228]
51,2,"CCS(=O)(=O)N(C)c1cncc(-c2cc3ccccc3n2C)c1 [Example 231, Ethanesulfonic acid methyl-[5-(1-methyl-1H-indol-2-yl)-pyridin-3-yl]-amide]"
1100,21,"CCS(=O)(=O)Nc1cncc(-c2c(C)c3ccccc3n2C)c1 [Example 236, Ethanesulfonic acid [5-(1,3-dimethyl-1H-indol-2-yl)-pyridin-3-yl)-amide]"
> 1000,44,"CCS(=O)(=O)Nc1cncc(-c2c(COC)c3ccc(Cl)cc3n2C)c1 [Example 238, Ethanesulfonic acid [5-(1-methyl-3-methoxymethyl-6-chloro-1H-indol-2-yl)-pyridin-3-yl)-amide]"

SMILES,IC50 [1] [nM],IC50 [2] [nM]
"Cc1c(-c2cccnc2)[nH]c2ccc(C#N)cc12 [Example 6, 3-Methyl-2-pyridin-3-yl-1H-indole-5-carbonitrile]",7,1
"COc1ccncc1-c1cc2cc(C#N)ccc2[nH]1 [Example 90, 2-(4-Methoxy-pyridin-3-yl)-1H-indole-5-carbonitrile]",400,40
"Cn1c(-c2cnccc2CO)cc2ccccc21 [Example 106, [3-(1-Methyl-1H-indol-2-yl)-pyridin-4-yl]-methanol]",530,85
"Cn1c(-c2cncc(OS(C)(=O)=O)c2)c(C#N)c2ccccc21 [Example 138, Methanesulfonic acid 5-(3-cyano-1-methyl-1H-indol-2-yl)-pyridin-3-yl ester]",326,43
"CC(C)S(=O)(=O)NCc1cncc(-c2c(C#N)c3ccc(Cl)cc3n2C)c1 [Example 186, Propane-2-sulfonic acid [5-(6-chloro-3-cyano-1-methyl-1H-indol-2-yl)-pyridin-3-ylmethyl]amide]",390,21
"COCCc1cncc(-c2c(C#N)c3ccccc3n2C)c1 [Example 217, 2-[5-(2-Methoxy-ethyl)-pyridin-3-yl]-1-methyl-1H-indole-3-carbonitrile]",22,4
"CCc1c(-c2cncc(NS(=O)(=O)CC)c2)n(C)c2ccccc12 [Example 229, Ethanesulfonic acid [5-(1-methyl-3-ethyl-1H-indol-2-yl)-pyridin-3-yl]-amide]",125,5
"CCS(=O)(=O)NCc1cncc(-c2c(C)c3ccccc3n2C)c1 [Example 237, N-((5-(1,3-Dimethyl-1H-indol-2-yl)pyridin-3-yl)methyl)ethanesulfonamide]",1610,5
